Source: patent US12247015B2, “3-amino-4H-benzo[e][1,2,4]thiadiazine 1,1-dioxide derivatives as inhibitors of MRGX2” (Solent Therapeutics, LLC, priority 2019, dated 2025)

Legend:
human MRGX2 receptor = human MRGX2 receptor (Homo sapiens (Human), UniProt Q96LB1); test: In vitro radioligand binding assay (Kd); conditions: membrane from SF9 cells overexpressing human MRGX2; 3H-labeled ligand; pH 7.4, room temperature, 60 minutes
Method: In vitro Radioligand Binding Assay (Kd)
Equilibrium dissociation constants, Kd, for many of the compounds described in the Examples section (“test compounds”) are determined in the presence cellular membrane prepared from SF9 cell lines overexpressing the human MRGX2 receptor. The assay is carried out in a 96-well plate (Greiner V-Bottom #651201). […] The assay mixtures, which comprise MRGX2 receptor, radiolabeled ligand and test compound, are incubated at room temperature (˜22° C.) for 60 minutes to reach equilibrium. After incubation, the assay mixtures are collected on a filter mat (Filtermat A, Perkin Elmer) using a cell harvester (Harvester 96, TOMTEC). The filter mat is completely dried. A solid scintillant (Meltilex, Perkin Elmer) is added to each filter membrane and the level of radioactivity (“Signal”) from each well (assay mixture) is recorded using a scintillation counter (Trilux Microbeta, PerkinElmer). Kd is determined by curve-fitting the dose response data ([I], Signal) for each set of samples to the equation,
[formula] where [I] is the concentration of the test compound. The data are reported as pKd

[1] = target: hMRGX2 (CHO-K1 cells overexpressing MRGX2) (Homo sapiens (Human), UniProt Q96LB1); test: In vitro inhibition (EC50) of intracellular calcium flux, FLIPR Tetra, substance P stimulation; type: cell-based; conditions: stimulated with MRGX2 ligand substance P, FLIPR Calcium 5, read-out: hMRGX2 Cellular Potency (pEC50) (converted)
Chain of hMRGX2 (CHO-K1 cells overexpressing MRGX2) (Q96LB1 whole entry): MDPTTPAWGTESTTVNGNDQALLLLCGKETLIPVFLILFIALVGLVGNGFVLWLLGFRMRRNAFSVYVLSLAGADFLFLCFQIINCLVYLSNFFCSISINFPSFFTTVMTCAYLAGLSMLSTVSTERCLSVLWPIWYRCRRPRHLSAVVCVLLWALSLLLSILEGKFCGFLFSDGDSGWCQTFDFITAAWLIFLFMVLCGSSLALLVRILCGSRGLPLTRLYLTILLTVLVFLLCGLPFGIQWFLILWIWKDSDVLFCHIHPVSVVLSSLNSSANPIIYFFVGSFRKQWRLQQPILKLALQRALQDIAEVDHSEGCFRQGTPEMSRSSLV
Method in brief: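 CHO-K1 cells overexpressing human MRGX2, loaded with Calcium 5 dye for 30 min at 37 °C, then given compound (11-point, top 10 μM).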

Chain of human MRGX2 receptor (Q96LB1 whole entry): as above

O=S1(=O)N=C(NCCF)Nc2c(-c3cccc(F)c3Cl)cccc21 [Example 147, 5-(2-chloro-3-fluorophenyl)-3-((2-fluoroethyl)amino)-4H-benzo[e][1,2,4]thiadiazine 1,1-dioxide]
hMRGX2 Binding Affinity (pKd) (human MRGX2 receptor): 6.67 | EC50 [1]: 51.1 nM

CCNC1=NS(=O)(=O)c2cc(F)cc(-c3cccc(F)c3Cl)c2N1 [Example 6, 5-(2-chloro-3-fluorophenyl)-3-(ethylamino)-7-fluoro-4H-benzo[e][1,2,4]thiadiazine 1,1-dioxide]
hMRGX2 Binding Affinity (pKd) (human MRGX2 receptor): 6.78 | EC50 [1]: 21.6 nM

O=S1(=O)N=C(NCC2CC2)Nc2c(-c3cccc(F)c3Cl)cc(F)cc21 [Example 7, 5-(2-chloro-3-fluorophenyl)-3-((cyclopropylmethyl)amino)-7-fluoro-4H-benzo[e][1,2,4]thiadiazine 1,1-dioxide]
hMRGX2 Binding Affinity (pKd) (human MRGX2 receptor): 7.27 | EC50 [1]: 23.3 nM

COC(C)CNC1=NS(=O)(=O)c2cccc(-c3cccc(F)c3Cl)c2N1 (stereo not shown) [Example 33, 5-(2-chloro-3-fluorophenyl)-3-((2-methoxypropyl)amino)-4H-benzo[e][1,2,4]thiadiazine 1,1-dioxide]
EC50 [1]: 38.2 nM

COCCNC1=NS(=O)(=O)c2cc(F)cc(-c3ccccc3Cl)c2N1 [Example 14, 5-(2-chlorophenyl)-7-fluoro-3-((2-methoxyethyl)amino)-4H-benzo[e][1,2,4]thiadiazine 1,1-dioxide]
EC50 [1]: 40.6 nM

COCCNC1=NS(=O)(=O)c2cccc(-c3cccc(F)c3C3CC3)c2N1 [Example 156, 5-(2-cyclopropyl-3-fluorophenyl)-3-((2-methoxyethyl)amino)-4H-benzo[e][1,2,4]thiadiazine 1,1-dioxide]
EC50 [1]: 47.5 nM

O=S1(=O)N=C(NCCF)Nc2c(-c3cccc(F)c3Cl)cc(F)cc21 [Example 11, 5-(2-chloro-3-fluorophenyl)-7-fluoro-3-((2-fluoroethyl)amino)-4H-benzo[e][1,2,4]thiadiazine 1,1-dioxide]
EC50 [1]: 127 nM

COc1cccc(CCNC2=NS(=O)(=O)c3cccc(-c4cccc(F)c4Cl)c3N2)c1 [Example 70, 5-(2-chloro-3-fluorophenyl)-3-((3-methoxyphenethyl)amino)-4H-benzo[e][1,2,4]thiadiazine 1,1-dioxide]
EC50 [1]: 57.9 nM

Cc1nn(C)cc1-c1cccc2c1NC(Nc1cccc(C(C)C)c1)=NS2(=O)=O [Example 115, 5-(1,3-dimethyl-1H-pyrazol-4-yl)-3-((3-isopropylphenyl)amino)-4H-benzo[e][1,2,4]thiadiazine 1,1-dioxide]
EC50 [1]: 54.8 nM

CC(C)c1ccc(NC2=NS(=O)(=O)c3cccc(-c4cnn(C(F)F)c4)c3N2)cc1 [Example 99, 5-(1-(difluoromethyl)-1H-pyrazol-4-yl)-3-((4-isopropylphenyl)amino)-4H-benzo[e][1,2,4]thiadiazine 1,1-dioxide]
EC50 [1]: 760 nM

COc1cccc(CNC2=NS(=O)(=O)c3cccc(C4CC4)c3N2)n1 [Example 120, 5-cyclopropyl-3-(((6-methoxypyridin-2-yl)methyl)amino)-4H-benzo[e][1,2,4]thiadiazine 1,1-dioxide]
EC50 [1]: 578 nM

CCc1ccccc1-c1cccc2c1NC(NCCOC)=NS2(=O)=O [Example 163, 5-(2-ethylphenyl)-3-((2-methoxyethyl)amino)-4H-benzo[e][1,2,4]thiadiazine 1,1-dioxide]
EC50 [1]: 180 nM

Cc1cccc(CNC2=NS(=O)(=O)c3cccc(-c4cc(F)cc(F)c4)c3N2)n1 [Example 79, 5-(3,5-difluorophenyl)-3-(((6-methylpyridin-2-yl)methyl)amino)-4H-benzo[e][1,2,4]thiadiazine 1,1-dioxide]
EC50 [1]: 368 nM

CNC1=NS(=O)(=O)c2cccc(-c3cc(F)ccc3Cl)c2N1 [Example 93, 5-(2-chloro-5-fluorophenyl)-3-(methylamino)-4H-benzo[e][1,2,4]thiadiazine 1,1-dioxide]
EC50 [1]: 181 nM

O=S1(=O)N=C(NCc2ccccc2)Nc2c(-c3cc(F)cc(F)c3)cccc21 [Example 88, 3-(benzylamino)-5-(3,5-difluorophenyl)-4H-benzo[e][1,2,4]thiadiazine 1,1-dioxide]
EC50 [1]: 75.2 nM

N#Cc1ccccc1-c1cccc2c1NC(NCC1CCC1)=NS2(=O)=O [Example 146, 2-(3-((cyclobutylmethyl)amino)-1,1-dioxido-4H-benzo[e][1,2,4]thiadiazin-5-yl)benzonitrile]
EC50 [1]: 162 nM

CNC1=NS(=O)(=O)c2cccc(-c3cccc(F)c3C)c2N1 [Example 95, 5-(3-fluoro-2-methylphenyl)-3-(methylamino)-4H-benzo[e][1,2,4]thiadiazine 1,1-dioxide]
EC50 [1]: 350 nM

CCNC1=NS(=O)(=O)c2cccc(-c3ccnc(F)c3Cl)c2N1 [Example 52, 5-(3-chloro-2-fluoropyridin-4-yl)-3-(ethylamino)-4H-benzo[e][1,2,4]thiadiazine 1,1-dioxide]
EC50 [1]: 131 nM

O=S1(=O)N=C(NCCOCC(F)F)Nc2c(-c3cccc(F)c3Cl)cccc21 [Example 160, 5-(2-chloro-3-fluorophenyl)-3-((2-(2,2-difluoroethoxy)ethyl)amino)-4H-benzo[e][1,2,4]thiadiazine 1,1-dioxide]
EC50 [1]: 93.3 nM

COC(C)CNC1=NS(=O)(=O)c2cccc(-c3cc(F)cc(F)c3)c2N1 (stereo not shown) [Example 166, 5-(3,5-difluorophenyl)-3-((2-methoxypropyl)amino)-4H-benzo[e][1,2,4]thiadiazine 1,1-dioxide]
EC50 [1]: 340 nM

O=S1(=O)N=C(NCc2ccco2)Nc2c(-c3cc(F)cc(F)c3)cccc21 [Example 164, 5-(3,5-difluorophenyl)-3-((furan-2-ylmethyl)amino)-4H-benzo[e][1,2,4]thiadiazine 1,1-dioxide]
EC50 [1]: 225 nM

O=S1(=O)N=C(NCc2ccccn2)Nc2c(-c3cc(F)ccc3F)cccc21 [Example 139, 5-(2,5-difluorophenyl)-3-((pyridin-2-ylmethyl)amino)-4H-benzo[e][1,2,4]thiadiazine 1,1-dioxide]
EC50 [1]: 246 nM

Cc1n[nH]cc1-c1cccc2c1NC(Nc1ccc(C(C)C)cc1)=NS2(=O)=O [Example 106, 3-((4-isopropylphenyl)amino)-5-(3-methyl-1H-pyrazol-4-yl)-4H-benzo[e][1,2,4]thiadiazine 1,1-dioxide]
EC50 [1]: 70.1 nM

N#Cc1c(F)cccc1-c1cccc2c1NC(NCCF)=NS2(=O)=O [Example 149, 2-fluoro-6-(3-((2-fluoroethyl)amino)-1,1-dioxido-4H-benzo[e][1,2,4]thiadiazin-5-yl)benzonitrile]
EC50 [1]: 320 nM

COC(C)CNC1=NS(=O)(=O)c2cccc(-c3ccccc3C#N)c2N1 (stereo not shown) [Example 145, 2-(3-((2-methoxypropyl)amino)-1,1-dioxido-4H-benzo[e][1,2,4]thiadiazin-5-yl)benzonitrile]
EC50 [1]: 141 nM

O=S1(=O)N=C(NCC(F)F)Nc2c(-c3ccccc3Cl)cccc21 [Example 44, 5-(2-chlorophenyl)-3-((2,2-difluoroethyl)amino)-4H-benzo[e][1,2,4]thiadiazine 1,1-dioxide]
EC50 [1]: 186 nM

O=S1(=O)N=C(NCC2CCC2)Nc2c(-c3cc(F)cc(F)c3)cccc21 [Example 81, 3-((cyclobutylmethyl)amino)-5-(3,5-difluorophenyl)-4H-benzo[e][1,2,4]thiadiazine 1,1-dioxide]
EC50 [1]: 384 nM

CC(C)c1ccc(NC2=NS(=O)(=O)c3cccc(-c4cnn(C5CC(F)(F)C5)c4)c3N2)cc1 [Example 104, 5-(1-(3,3-difluorocyclobutyl)-1H-pyrazol-4-yl)-3-((4-isopropylphenyl)amino)-4H-benzo[e][1,2,4]thiadiazine 1,1-dioxide]
EC50 [1]: 89.1 nM

CNC1=NS(=O)(=O)c2cccc(-c3ccnc(F)c3Cl)c2N1 [Example 56, 5-(3-chloro-2-fluoropyridin-4-yl)-3-(methylamino)-4H-benzo[e][1,2,4]thiadiazine 1,1-dioxide]
EC50 [1]: 282 nM

CO[C@H](C)CCNC1=NS(=O)(=O)c2cccc(-c3cccc(F)c3Cl)c2N1 (single isomer, unassigned) [Example 154]
EC50 [1]: 32.2 nM

O=S1(=O)N=C(NCc2nccs2)Nc2c(-c3ccnc(F)c3Cl)cccc21 [Example 49, 5-(3-chloro-2-fluoropyridin-4-yl)-3-((thiazol-2-ylmethyl)amino)-4H-benzo[e][1,2,4]thiadiazine 1,1-dioxide]
EC50 [1]: 24.2 nM

O=S1(=O)N=C(NCCc2ccccn2)Nc2c(-c3cc(F)cc(F)c3)cccc21 [Example 80, 5-(3,5-difluorophenyl)-3-((2-(pyridin-2-yl)ethyl)amino)-4H-benzo[e][1,2,4]thiadiazine 1,1-dioxide]
EC50 [1]: 897 nM

Cn1cccc(CNC2=NS(=O)(=O)c3cccc(-c4cccc(F)c4F)c3N2)c1=O [Example 20, 3-(((5-(2,3-difluorophenyl)-1,1-dioxido-4H-benzo[e][1,2,4]thiadiazin-3-yl)amino)methyl)-1-methylpyridin-2(1H)-one]
EC50 [1]: 857 nM

O=S1(=O)N=C(NCC(F)F)Nc2c(-c3ccnc(F)c3Cl)cccc21 [Example 53, 5-(3-chloro-2-fluoropyridin-4-yl)-3-((2,2-difluoroethyl)amino)-4H-benzo[e][1,2,4]thiadiazine 1,1-dioxide]
EC50 [1]: 575 nM
